Experimental findings from PubChem BioAssay AID256 (DTP/NCI, 2004) are described below.

Several values for one entry are separate records, joined by “and”; a condition that tells them apart may be missing. Equal values may be shown once. Toxic doses and inconclusive results are not listed.

The subject of this assay is CD2F1 mice, L1210 leukemia ip, survival T/C. Briefly: NCI In Vivo Anticancer Drug Screen. Data for tumor model L1210 Leukemia (intraperitoneal) in CD2F1 (CDF1) mice. To be noted: higher = longer survival. Put shortly: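 Activity against a transplanted murine tumor was judged by comparing the compound group with a vehicle group. The outcome in the treated animals was divided by that in the controls.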

The mark [1] stands for this setting: endpoint: mean survival time, dose: 100.0 mg/kg/injection, schedule: Q04DX003 (ip), vehicle: saline.
Where [2] appears, read: endpoint: mean survival time, dose: 200.0 mg/kg/injection, schedule: Q04DX003 (ip), vehicle: saline.
Setting [3] is: endpoint: mean survival time, dose: 100.0 mg/kg/injection, schedule: Q01DX001 (ip), vehicle: saline with Tween-80.
Where [4] appears, read: endpoint: mean survival time, dose: 200.0 mg/kg/injection, schedule: Q01DX001 (ip), vehicle: saline with Tween-80.
The mark [5] stands for this setting: endpoint: mean survival time, dose: 400.0 mg/kg/injection, schedule: Q01DX001 (ip), vehicle: saline with Tween-80.
The mark [6] stands for this setting: endpoint: mean survival time, dose: 50.0 mg/kg/injection, schedule: Q01DX009 (ip), vehicle: saline with Tween-80.
Where [7] appears, read: endpoint: mean survival time, dose: 100.0 mg/kg/injection, schedule: Q01DX009 (ip), vehicle: saline with Tween-80.
The mark [8] stands for this setting: endpoint: mean survival time, dose: 200.0 mg/kg/injection, schedule: Q01DX009 (ip), vehicle: saline with Tween-80.
Where [9] appears, read: endpoint: mean survival time, dose: 400.0 mg/kg/injection, schedule: Q01DX001 (ip), vehicle: saline.
The mark [10] stands for this setting: endpoint: mean survival time, dose: 12.5 mg/kg/injection, schedule: Q04DX003 (ip), vehicle: saline with Tween-80.
The mark [11] stands for this setting: endpoint: mean survival time, dose: 25.0 mg/kg/injection, schedule: Q04DX003 (ip), vehicle: saline with Tween-80.
Setting [12] is: endpoint: mean survival time, dose: 50.0 mg/kg/injection, schedule: Q04DX003 (ip), vehicle: saline with Tween-80.
Where [13] appears, read: endpoint: mean survival time, dose: 400.0 mg/kg/injection, schedule: Q04DX003 (ip), vehicle: saline with Tween-80.
The mark [14] stands for this setting: endpoint: mean survival time, dose: 400.0 mg/kg/injection, schedule: Q01DX009 (ip), vehicle: saline with Tween-80.

`NC(CCC(=O)OCc1ccccc1)C(=O)OCc1ccccc1` (stereo not drawn): the T/C (endpoint: mean survival time, dose: 50.0 mg/kg/injection, schedule: Q01DX009 (ip), vehicle: saline) is 106 % of control; the T/C (endpoint: mean survival time, dose: 100.0 mg/kg/injection, schedule: Q01DX009 (ip), vehicle: saline) is 93 % of control; the T/C under setting [1] was 97 % of control; the T/C (endpoint: mean survival time, dose: 200.0 mg/kg/injection, schedule: Q01DX009 (ip), vehicle: saline) was 87 % of control; the T/C under setting [2] was 108 % of control.

For the compound `O=C(CCc1ccc(O)cc1)ON1C(=O)CCC1=O`, the T/C (endpoint: mean survival time, dose: 50.0 mg/kg/injection, schedule: Q01DX009 (ip), vehicle: Klucel (hydroxypropylcellulose) (HPC)) was 105 % of control.

Turning to `O=C(NCCCl)NC1C(O)C(O)C(O)C(O)C1O` (stereo not drawn), the T/C reads like this: under setting [3], 104 % of control; under setting [4], 98 % of control; under setting [5], 98 % of control.

Take `O=C(CNC(=O)Nc1cccc([N+](=O)[O-])c1)N/N=C/c1ccncc1`: the T/C by setting is: under setting [6], 89 % of control; under setting [7], 89 % of control; under setting [8], 93 % of control.

Consider `N/C(=N/O)c1cn(C2OC(CO)C(O)C2O)c2nc[nH]c(=O)c12` (stereo not drawn), for which the T/C (endpoint: mean survival time, dose: 75.0 mg/kg/injection, schedule: Q01DX001 (ip), vehicle: water) was 119 % of control.

Consider `c1cc(CSc2ncnc3nc[nH]c23)ccn1`, for which the T/C reads like this: (endpoint: mean survival time, dose: 178.0 mg/kg/injection, schedule: Q01DX001 (ip), vehicle: saline) 118 % of control; (endpoint: mean survival time, dose: 267.0 mg/kg/injection, schedule: Q01DX001 (ip), vehicle: saline) 115 % of control; under setting [9], 119 % of control.

As to `Brc1ccc([I+]c2ccc(Br)cc2)cc1`, the T/C under setting [10] is 105 % of control, the T/C under setting [11] is 95 % of control, the T/C under setting [12] is 101 % of control and the T/C under setting [13] is 94 % of control.

As to `ClCCN(CCCl)c1ccc(CCCCN2CCOCC2)cc1`, the T/C by setting is: (endpoint: mean survival time, dose: 10.0 mg/kg/injection, schedule: Q01DX009 (ip), vehicle: saline) 119 % of control; (endpoint: mean survival time, dose: 40.0 mg/kg/injection, schedule: Q01DX009 (ip), vehicle: saline) 103 % of control.

With `CC1CNC(=S)O1` (stereo not drawn), the T/C (endpoint: mean survival time, dose: 25.0 mg/kg/injection, schedule: Q01DX009 (ip), vehicle: saline with Tween-80) was 102 % of control; the T/C under setting [6] is 100 % of control; the T/C under setting [7] was 97 % of control and 103 % of control; the T/C (endpoint: mean survival time, dose: 100.0 mg/kg/injection, schedule: Q04DX003 (ip), vehicle: saline with Tween-80) was 100 % of control; the T/C under setting [8] was 97 % of control and 95 % of control; the T/C (endpoint: mean survival time, dose: 200.0 mg/kg/injection, schedule: Q04DX003 (ip), vehicle: saline with Tween-80) is 97 % of control. The T/C is, setting by setting: under setting [14], 97 % of control and 106 % of control; under setting [13], 103 % of control.

As to `O=C(c1ccccc1)C(c1ccccc1)C(SCc1ccccc1)c1ccccc1` (stereo not drawn), the T/C by setting is: under setting [3], 88 % of control; under setting [7], 94 % of control; under setting [4], 90 % of control; under setting [8], 100 % of control; under setting [5], 98 % of control; under setting [14], 103 % of control.

On to `CCOS(=O)(=O)c1ccc(N)c([N+](=O)[O-])c1`, for which the T/C (endpoint: mean survival time, dose: 100.0 mg/kg/injection, schedule: Q01DX001 (ip), vehicle: Klucel (hydroxypropylcellulose) (HPC)) is 100 % of control; the T/C (endpoint: mean survival time, dose: 100.0 mg/kg/injection, schedule: Q01DX009 (ip), vehicle: Klucel (hydroxypropylcellulose) (HPC)) is 100 % of control; the T/C (endpoint: mean survival time, dose: 200.0 mg/kg/injection, schedule: Q01DX001 (ip), vehicle: Klucel (hydroxypropylcellulose) (HPC)) is 111 % of control; the T/C (endpoint: mean survival time, dose: 200.0 mg/kg/injection, schedule: Q01DX009 (ip), vehicle: Klucel (hydroxypropylcellulose) (HPC)) is 100 % of control; the T/C (endpoint: mean survival time, dose: 400.0 mg/kg/injection, schedule: Q01DX001 (ip), vehicle: Klucel (hydroxypropylcellulose) (HPC)) was 100 % of control.

As to `C[Si](O)(O)CCCCNC(=O)/C=C\C(=O)O`, the T/C was 89 % of control (endpoint: mean survival time, dose: 100.0 mg/kg/injection, schedule: Q04DX003 (ip), vehicle: other); 93 % of control (endpoint: mean survival time, dose: 200.0 mg/kg/injection, schedule: Q04DX003 (ip), vehicle: other); 89 % of control (endpoint: mean survival time, dose: 400.0 mg/kg/injection, schedule: Q04DX003 (ip), vehicle: other).

As to `OCCCCCCl`, the T/C is 104 % of control (endpoint: mean survival time, dose: 100.0 mg/kg/injection, schedule: Q01DX001 (ip), vehicle: saline); 98 % of control (endpoint: mean survival time, dose: 200.0 mg/kg/injection, schedule: Q01DX001 (ip), vehicle: saline); 101 % of control under setting [9].

On to `CC[C@]1(O)C[C@H]2CN(CCc3c([nH]c4ccccc34)[C@@](C(=O)OC)(c3cc4c(cc3OC)N(C)[C@H]3[C@@](O)(C(=O)OC)[C@H](OC(C)=O)[C@]5(CC)C=CCN6CC[C@]43[C@@H]65)C2)C1`, for which the T/C (endpoint: mean survival time, dose: 0.03 mg/kg/injection, schedule: Q01DX009 (ip), vehicle: water) is 92 % of control; the T/C (endpoint: mean survival time, dose: 0.06 mg/kg/injection, schedule: Q01DX009 (ip), vehicle: water) is 97 % of control; the T/C (endpoint: mean survival time, dose: 0.13 mg/kg/injection, schedule: Q01DX009 (ip), vehicle: water) is 95 % of control; the T/C (endpoint: mean survival time, dose: 0.25 mg/kg/injection, schedule: Q01DX007 (ip), vehicle: water) was 120 % of control; the T/C (endpoint: mean survival time, dose: 0.5 mg/kg/injection, schedule: Q04DX003 (ip), vehicle: water) was 120 % of control; the T/C (endpoint: mean survival time, dose: 1.0 mg/kg/injection, schedule: Q01DX007 (ip), vehicle: water) was 91 % of control. Also, the T/C is 90 % of control and 91 % of control (endpoint: mean survival time, dose: 1.0 mg/kg/injection, schedule: Q01DX009 (ip), vehicle: saline); 86 % of control (endpoint: mean survival time, dose: 1.0 mg/kg/injection, schedule: Q01DX009 (ip), vehicle: water); 120 % of control (endpoint: mean survival time, dose: 1.0 mg/kg/injection, schedule: Q04DX003 (ip), vehicle: water); 110 % of control (endpoint: median survival time, dose: 0.83 mg/kg/injection, schedule: Q01DX009 (ip), vehicle: saline); 98 % of control (endpoint: median survival time, dose: 1000.0 micrograms/kg/injection, schedule: Q01DX009 (ip), vehicle: saline).

`O=C(O)C(=O)O.[NH-]CC1CCCC[N-]1.[Pt+2]` (stereo not drawn): the T/C is 164 % of control under setting [10], 201 % of control under setting [11] and 238 % of control under setting [12].

On to `Cc1c(C)c(CSC#N)c(C)c(C)c1CSC#N`, for which the T/C (endpoint: mean survival time, dose: 75.0 mg/kg/injection, schedule: Q04DX003 (ip), vehicle: saline) was 98 % of control; the T/C (endpoint: mean survival time, dose: 150.0 mg/kg/injection, schedule: Q04DX003 (ip), vehicle: saline) was 102 % of control; the T/C (endpoint: mean survival time, dose: 300.0 mg/kg/injection, schedule: Q04DX003 (ip), vehicle: saline) is 95 % of control.

`[Cl][Pt+2][Cl].[NH-]c1ccc(C(=O)c2ccccc2)cc1[NH-]`: the T/C was 105 % of control (endpoint: mean survival time, dose: 2.5 mg/kg/injection, schedule: Q01DX009 (ip), vehicle: saline with Tween-80); 105 % of control (endpoint: mean survival time, dose: 5.0 mg/kg/injection, schedule: Q01DX009 (ip), vehicle: saline with Tween-80); 106 % of control (endpoint: mean survival time, dose: 10.0 mg/kg/injection, schedule: Q01DX009 (ip), vehicle: saline with Tween-80); 100 % of control and 106 % of control (endpoint: mean survival time, dose: 20.0 mg/kg/injection, schedule: Q01DX009 (ip), vehicle: saline with Tween-80); 102 % of control and 105 % of control (endpoint: mean survival time, dose: 40.0 mg/kg/injection, schedule: Q01DX009 (ip), vehicle: saline with Tween-80); 101 % of control (endpoint: mean survival time, dose: 80.0 mg/kg/injection, schedule: Q01DX009 (ip), vehicle: saline with Tween-80). The T/C reads like this: (endpoint: mean survival time, dose: 160.0 mg/kg/injection, schedule: Q01DX009 (ip), vehicle: saline with Tween-80) 100 % of control; (endpoint: mean survival time, dose: 320.0 mg/kg/injection, schedule: Q01DX009 (ip), vehicle: saline with Tween-80) 100 % of control.

For `NC(N)=NC(N)=Nc1ccc(-c2ccccc2)cc1`, the T/C reads like this: (endpoint: mean survival time, dose: 25.0 mg/kg/injection, schedule: Q01DX001 (ip), vehicle: saline with Tween-80) 100 % of control; (endpoint: mean survival time, dose: 50.0 mg/kg/injection, schedule: Q01DX001 (ip), vehicle: saline with Tween-80) 103 % of control; under setting [3], 93 % of control.

Consider `O=S(=O)(Cl)c1cccc2cc3ccccc3cc12`, for which the T/C was 109 % of control under setting [1]; 97 % of control under setting [2]; 103 % of control (endpoint: mean survival time, dose: 400.0 mg/kg/injection, schedule: Q04DX003 (ip), vehicle: saline).
